Experimental data from patent publication US9187467B2, “2-phenyl benzothiazole linked imidazole compounds as potential anticancer agents and process for the preparation thereof” (Council of Scientific and Industrial Research, priority 2012, dated 2015).
Read-outs that look alike come from different tables or passages of the source.

Columns and labels:
[1] = test system: OVCAR-4; assay: SRB anticancer assay, ovarian; assay type: cell-based, human; settings: Homo sapiens, OVCAR-4, 48 h
[2] = test system: A498; assay: SRB anticancer assay, renal; assay type: cell-based, human; design: Log10GI50: unit not given here
[3] = test system: A549/ATCC; assay: SRB anticancer assay, non-small lung; assay type: cell-based, human; design: Log10GI50: unit not given here
[4] = test system: NCI-H23; assay: SRB anticancer assay, non-small lung; assay type: cell-based, human
[5] = test system: MCF7; assay: SRB anticancer assay, breast; assay type: cell-based, human; settings: Homo sapiens, MCF7, 48 h
[6] = test system: SK-MEL-5; assay: SRB anticancer assay, melanoma; assay type: cell-based, human; settings: Homo sapiens, SK-MEL-5, 48 h
[7] = test system: SF-268; assay: SRB anticancer assay, CNS; assay type: cell-based, human; design: Log10GI50: unit not given here
[8] = test system: MALME-3M; assay: SRB anticancer assay, melanoma; assay type: cell-based, human; design: Log10GI50: unit not given here
[9] = test system: LOX IMVI; assay: SRB anticancer assay, melanoma; assay type: cell-based, human; design: Log10GI50: unit not given here
[10] = test system: TK-10; assay: SRB anticancer assay, renal; assay type: cell-based, human; settings: Homo sapiens, TK-10, 48 h
[11] = test system: T-47D; assay: SRB anticancer assay, breast; assay type: cell-based; settings: Homo sapiens, T47D, 48 h
[12] = test system: HCT-116; assay: SRB anticancer assay, colon; assay type: cell-based, human; settings: Homo sapiens, HCT-116, 48 h
[13] = test system: SF-295; assay: SRB anticancer assay, CNS; assay type: cell-based, human; design: Log10GI50: unit not given here
[14] = test system: Colon cancer cell lines; assay: SRB anticancer assay, panel result; assay type: cell-based, human
Procedure: (§1) The compounds were evaluated for anticancer activity against sixty human cancer cells derived from nine cancer types (leukemia cell line, non-small-cell lung cell line, colon cell line, CNS cell line, melanoma cell line, ovarian cell line, prostate cell line, renal cancer cell line and breast cancer cell line) as shown in Table 1. For each compound, dose response curves for each cell line were measured at a minimum of five concentrations at 10 fold dilutions. A protocol of 48 h continuous drug exposure was used and a sulforhodamine B (SRB) protein assay was used to estimate cell viability or growth.

[15] = test system: Renal cancer cell lines; assay: SRB anticancer assay, panel result; assay type: cell-based, human
Procedure: as §1

[16] = test system: CNS cancer cell lines; assay: SRB anticancer assay, panel result; assay type: cell-based, human
Procedure: as §1

[17] = test system: Prostate cancer cell lines; assay: SRB anticancer assay, panel result; assay type: cell-based, human
Procedure: as §1

[18] = test system: Breast cancer cell lines; assay: SRB anticancer assay, panel result; assay type: cell-based, human
Procedure: as §1

[19] = test system: Leukemia cancer cell lines; assay: SRB anticancer assay, panel result; assay type: cell-based, human
Procedure: as §1

[20] = test system: Non-small cell lung cancer cell lines; assay: SRB anticancer assay, panel result; assay type: cell-based, human
Procedure: as §1

[21] = test system: Ovarian cancer cell lines; assay: SRB anticancer assay, panel result; assay type: cell-based, human
Procedure: as §1

[22] = test system: Melanoma cancer cell lines; assay: SRB anticancer assay, panel result; assay type: cell-based, human
Procedure: as §1

[23] = test system: NCI-H226; assay: SRB anticancer assay, non-small lung; assay type: cell-based, human; settings: Homo sapiens, NCI-H226, 48 h
[24] = test system: MDA-MB-231/ATCC; assay: SRB anticancer assay, breast; assay type: cell-based, human; design: Log10GI50: unit not given here; settings: for GI50: 48 h
[25] = test system: UO-31; assay: SRB anticancer assay, renal; assay type: cell-based, human; design: Log10GI50: unit not given here
[26] = test system: DU-145; assay: SRB anticancer assay, prostate; assay type: cell-based, human; design: Log10GI50: unit not given here
[27] = test system: OVCAR-3; assay: SRB anticancer assay, ovarian; assay type: cell-based, human; design: Log10GI50: unit not given here

COc1cc(-c2cncn2-c2ccc(-c3nc4ccc(F)cc4s3)cc2)ccc1F [Compound 4c, 6-Fluoro-2-(4-(5-(4-fluoro-3-methoxyphenyl)-1H-imidazol-1-yl)phenyl)benzo[d]thiazole]
GI50 [1]: 11.4 µM
Log10GI50 ([2]; A498, present compounds): −7.36
GI50 ([2]; Homo sapiens, A498, 48 h): 0.0432 µM
GI50 ([3]; Homo sapiens, 48 h): 12.3 µM
Log10GI50 ([3]; present compounds): −4.91
GI50 ([4]; Homo sapiens, NCI-H23, 48 h): 8.25 µM
Log10GI50 ([4]; NCI-H23, present compounds): −5.08 log10(M)
GI50 [5]: 23.5 µM
GI50 [6]: 12.1 µM
GI50 ([7]; Homo sapiens, SF-268, 48 h): 12.7 µM
Log10GI50 ([7]; SF-268, present compounds): −4.51
GI50 ([8]; Homo sapiens, Malme-3M, 48 h): 11.1 µM
Log10GI50 ([8]; MALME-3M, present compounds): −4.95
GI50 ([9]; Homo sapiens, 48 h): 35.9 µM
Log10GI50 ([9]; present compounds): −4.44
GI50 [10]: 38.8 µM
GI50 [11]: 11.1 µM
GI50 [12]: 4.36 µM
GI50 ([13]; Homo sapiens, SF-295, 48 h): 75.9 µM
Log10GI50 ([13]; SF-295, present compounds): −4.90
mean graph midpoint value (MG_MID) of Log10 GI50 ([14]; Colon panel): −4.71 log10(mol/L)
mean graph midpoint value (MG_MID) of log10 TGI ([14]; Colon panel, total inhibition of net cell growth): −4.06
LC50 ([14]; Homo sapiens, Colon panel, 50% net cell death, read-out: mean graph midpoint value (MG_MID) of Log10 LC50 (converted)): > 100 µM
GI50 ([14]; Homo sapiens, seven colon cancer cell lines, exposure at least 48 h, read-out: GI50, range over the panel): 4.36 to 82.3 µM
CC50 ([15]; Homo sapiens, Renal panel, 50% net cell death, read-out: mean graph midpoint value (MG_MID) of Log10 LC50 (converted)): 95.5 µM
GI50 ([15]; Homo sapiens, eight renal cancer cell lines, exposure at least 48 h, read-out: GI50, range over the panel): 0.0432 to 38.8 µM
mean graph midpoint value (MG_MID) of Log10 GI50 ([15]; Renal panel): −4.98 log10(mol/L)
mean graph midpoint value (MG_MID) of log10 TGI ([15]; Renal panel, total inhibition of net cell growth): −4.11
mean graph midpoint value (MG_MID) of Log10 GI50 ([16]; CNS panel): −4.52 mol/L
mean graph midpoint value (MG_MID) of log10 TGI ([16]; CNS panel, total inhibition of net cell growth): −4.05
CC50 ([16]; Homo sapiens, CNS panel, 50% net cell death, read-out: mean graph midpoint value (MG_MID) of Log10 LC50 (converted)): > 100 µM
GI50 ([16]; Homo sapiens, six CNS cancer cell lines, exposure at least 48 h, read-out: GI50, range over the panel): 12.6 to 75.9 µM
LC50 ([17]; Homo sapiens, Prostate panel, 50% net cell death, read-out: mean graph midpoint value (MG_MID) of Log10 LC50 (converted)): > 100 µM
GI50 ([17]; Homo sapiens, two prostate cancer cell lines (PC-3, DU-145), exposure at least 48 h, read-out: GI50, range over the panel): 3.47 to 14.3 µM
mean graph midpoint value (MG_MID) of Log10 GI50 ([17]; Prostate panel): −5.16 mol/L
mean graph midpoint value (MG_MID) of log10 TGI ([17]; Prostate panel, total inhibition of net cell growth): −4.06
mean graph midpoint value (MG_MID) of Log10 GI50 ([18]; Breast panel): −4.82 mol/L
mean graph midpoint value (MG_MID) of log10 TGI ([18]; Breast panel, total inhibition of net cell growth): −4.02
CC50 ([18]; Homo sapiens, Breast panel, 50% net cell death, read-out: mean graph midpoint value (MG_MID) of Log10 LC50 (converted)): > 100 µM
GI50 ([18]; Homo sapiens, six breast cancer cell lines, exposure at least 48 h, read-out: GI50, range over the panel): 7.98 to 32.2 µM
LC50 ([19]; Homo sapiens, Leukemia panel, 50% net cell death, read-out: mean graph midpoint value (MG_MID) of Log10 LC50 (converted)): > 100 µM
GI50 ([19]; Homo sapiens, six leukemia cancer cell lines, exposure at least 48 h, read-out: GI50, range over the panel): 2.5 to 6.92 µM
mean graph midpoint value (MG_MID) of Log10 GI50 ([19]; Leukemia panel): −5.38 log10(mol/L)
mean graph midpoint value (MG_MID) of log10 TGI ([19]; Leukemia panel, total inhibition of net cell growth): −4.19
LC50 ([20]; Homo sapiens, Non-small cell lung panel, 50% net cell death, read-out: mean graph midpoint value (MG_MID) of Log10 LC50 (converted)): 93.3 µM
GI50 ([20]; Homo sapiens, nine Non-small cell lung cancer cell lines, exposure at least 48 h, read-out: GI50, range over the panel): 5.47 to 49.3 µM
mean graph midpoint value (MG_MID) of Log10 GI50 ([20]; Non-small cell lung panel): −4.83 log10(M)
LC50 ([21]; Homo sapiens, Ovarian panel, 50% net cell death, read-out: mean graph midpoint value (MG_MID) of Log10 LC50 (converted)): > 100 µM
GI50 ([21]; Homo sapiens, seven ovarian cancer cell lines, exposure at least 48 h, read-out: GI50, range over the panel): 5.71 to 30.6 µM
mean graph midpoint value (MG_MID) of Log10 GI50 ([21]; Ovarian panel): −4.62 mol/L
mean graph midpoint value (MG_MID) of log10 TGI ([21]; Ovarian panel, total inhibition of net cell growth): −4.11
LC50 ([22]; Homo sapiens, Melanoma panel, 50% net cell death, read-out: mean graph midpoint value (MG_MID) of Log10 LC50 (converted)): > 100 µM
GI50 ([22]; Homo sapiens, nine melanoma cancer cell lines, exposure at least 48 h, read-out: GI50, range over the panel): 4.11 to 39.7 µM
mean graph midpoint value (MG_MID) of Log10 GI50 ([22]; Melanoma panel): −4.82 log10(mol/L)
mean graph midpoint value (MG_MID) of log10 TGI ([22]; Melanoma panel, total inhibition of net cell growth): >−4.0
GI50 [23]: 49.3 µM
GI50 ([24]; Homo sapiens, MDA-MB-231, 48 h, MDA-MB-231/ATCC (row head MDA-MB-), read-out: GI50): 32.2 µM
Log10GI50 ([24]; MDA-MB-231/ATCC, present compounds): −4.49
GI50 ([24]; listed as head printed 231/ATCC (second line of MDA-MB-231/ATCC)): —a
GI50 ([25]; Homo sapiens, UO-31, 48 h): 16.5 µM
Log10GI50 ([25]; UO-31, present compounds): −4.78
Log10GI50 ([26]; DU-145, present compounds): −4.85
GI50 ([26]; Homo sapiens, DU-145, 48 h): 14.3 µM
GI50 ([27]; Homo sapiens, OVCAR-3, 48 h): 5.71 µM
Log10GI50 ([27]; OVCAR-3, present compounds): −5.24
